Test results from patent US8785425B2, “11β-hydroxyandrosta-4-ene-3-ones” (Sun Pharma Advanced Research Company Ltd., priority 2006, dated 2014).
Marks after values point to notes of the source that are not given here.

Columns and labels:
[1] = tested on: cotton pellet induced granuloma; test: Cotton pellet granuloma (compound impregnated in pellet); assay type: in vivo; conditions: SD rats
Method: SD rats were used for assessing anti-inflammatory activity of test compound using cotton pellet granuloma method. Sterilized cotton pellets weighing 20 mg were prepared. Test compounds were dissolved in acetone so as to get the required quantity for each cotton pellet in 500 μl. Different pellets were impregnated with 500 μl of acetone to contain required quantity of test compounds and allowed to dry. Vehicle control pellets were impregnated with 500 μl acetone. Rats were made into different groups. Two cotton pellets were surgically implanted into the scapular region of each rat. On sixth day of such implantation, pellets along with granuloma were taken out. Thymus gland was also separated from each animal and weighed. The pellets with granuloma were dried for 20 hrs at 60° C. and weighed. Mean weights of dry granuloma and thymus, body weight gain/100 g body weights were calculated.

[2] = tested on: croton oil induced ear edema; test: Croton oil ear edema; assay type: in vivo, Mice (male, CD-1); conditions: inhibition at 1.6 μg, applied to ear, mice
Method: Mice (male, CD-1) were made into different groups. Test compounds were dissolved in pyridine-water-acetone (4:2:14) solution […] of compound or vehicle solution was applied to the left ear of the mice. The right ear of each mouse was applied simultaneously with 10 μl of pyridine:water:acetone (4:2:14) solution. After 2 hrs of compound or vehicle application, 10 μl of croton oil solution was applied to the left ear of all animals. After 6 hr of croton oil treatment the animals were sacrificed; ears were excised and weighed separately.

glucocorticoid receptors = target: T1, glucocorticoid receptors (Homo sapiens, UniProt P04150); test: Glucocorticoid receptor binding assay ([3H]dexamethasone radioligand); conditions: HeLa cells transfected with glucocorticoid receptors
T1 construct: host or cells: Human HeLa cells
T1 sequence (P04150 1-777): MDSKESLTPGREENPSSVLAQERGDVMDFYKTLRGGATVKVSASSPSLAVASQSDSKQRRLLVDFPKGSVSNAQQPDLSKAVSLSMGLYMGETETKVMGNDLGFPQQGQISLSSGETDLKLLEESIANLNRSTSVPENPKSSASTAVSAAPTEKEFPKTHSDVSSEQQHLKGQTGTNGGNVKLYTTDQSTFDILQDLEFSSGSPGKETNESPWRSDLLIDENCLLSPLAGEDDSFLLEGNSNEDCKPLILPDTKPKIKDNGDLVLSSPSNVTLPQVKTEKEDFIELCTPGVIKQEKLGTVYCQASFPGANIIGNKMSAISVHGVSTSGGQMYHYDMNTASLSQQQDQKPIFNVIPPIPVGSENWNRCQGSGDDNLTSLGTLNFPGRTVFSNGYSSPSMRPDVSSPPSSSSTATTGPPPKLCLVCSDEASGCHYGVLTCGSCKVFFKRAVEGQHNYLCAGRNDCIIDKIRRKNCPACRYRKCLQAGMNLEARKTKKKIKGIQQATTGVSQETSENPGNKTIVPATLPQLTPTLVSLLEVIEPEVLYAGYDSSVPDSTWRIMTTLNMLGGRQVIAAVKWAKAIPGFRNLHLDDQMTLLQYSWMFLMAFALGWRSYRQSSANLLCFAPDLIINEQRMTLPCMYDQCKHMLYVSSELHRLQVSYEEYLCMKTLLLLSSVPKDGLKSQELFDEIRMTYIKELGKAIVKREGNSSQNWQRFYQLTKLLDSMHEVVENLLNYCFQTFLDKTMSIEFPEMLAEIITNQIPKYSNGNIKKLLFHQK
Method: The steroid receptor binding assay were performed by MDS Pharma Services at their Taipei (Taiwan) pharmacology laboratory.
The activity of test compounds on glucocorticoid receptor was assessed using radioligand binding assays. […] Free [^3H]dexamethasone was removed from the medium by centrifugation and concentration of receptor bound ligand was determined in the supernatant by liquid scintillation counting.
The % inhibition was evaluated using a single concentration of test compound and the corresponding radiolabeled ligand. Results are presented as the percent inhibition of specific binding. The values are average of duplicate determinations for each concentration.

[3] = tested on: Sephadex induced lung edema; test: in vivo; conditions: SD rat
Method: Sephadex G-200 was prepared in sterile saline (10 mg/ml) and allowed to swell for at least 3 days at room temperature. Test compounds were prepared as suspensions by grinding and sonicating the solid in chilled saline. All the compounds were administered intratracheally at 24 hrs and 2 hrs prior to intratracheal administration of Sephadex (5 mg/kg) under light ether anesthesia. Vehicle control animals were administered vehicle instead of Sephadex. At 24 hr after Sephadex instillation, lung and thymus were excised from individual animals and weighed. Wet weight of lung and thymus was corrected for 100 g of initial body weight. The percentage increase in lung weight caused by Sephadex and its inhibitions by the compounds, were calculated. The percentage inhibitions of thymus compared to vehicle control group were also calculated.

[4] = tested on: liver glycogen deposition; assay type: in vivo, Male Sprague Dawley rats; conditions: 3 mg/kg intratracheally, 2 doses 24 hrs apart, adrenalectomized rats
Method: Male Sprague Dawley rats, weighing 190-220 g were bilaterally adrenalectomized and maintained on 0.9% saline solution throughout the experiment. On day 5th and 6th of adrenalectomy, animals were made into different groups, test compounds prepared in cold saline (sonicated for 30 min) were instilled intratracheally 2 doses@3 mg/kg, 24 hrs apart. At 15 hrs after the last treatment, animals were sacrificed and livers were excised and weighed. The glycogen content of the livers was determined by anthrone method. Briefly, a weighed quantity of liver tissue was homogenized with 5% trichloroacetic acid, supernatant mixed with ethanol and kept overnight for precipitation. The glycogen thus extracted was estimated as glucose generated after acid hydrolysis by addition of anthrone reagent at 620 nm. Glycogen content was expressed as mg/100 g liver.

## CCC(=O)O[C@]1(C(=O)SCC(=O)c2ccc(C(F)(F)F)cc2)[C@H](C)CC2C3C[C@H](F)C4=CC(=O)C=C[C@]4(C)[C@@]3(F)[C@@H](O)C[C@@]21C (stereo partly drawn) [IA.38, S-[2-Oxo-2-(4-trifluoromethylphenyl)ethyl]6α,9α-difluoro-11β-hydroxy-16α-methyl-3-oxo-17α-propionyloxyandrosta-1,4-diene-17β-carbothioate]
[1]; dose 10 mcg per pellet
  Mean % Inhibition of Granuloma: 67.17%

## CCC(=O)O[C@]1(C(=O)SC(C)(C)C(=O)c2ccccc2)[C@H](C)CC2C3C[C@H](F)C4=CC(=O)C=C[C@]4(C)[C@@]3(F)[C@@H](O)C[C@@]21C (stereo partly drawn) [IA.59, S-[1,1-Dimethyl-2-oxo-2-phenylethyl]6α,9α-difluoro-11β-hydroxy-16α-methyl-3-oxo-17α-propionyloxyandrosta-1,4-diene-17β-carbothioate]
[1]; dose 1000 mcg per pellet
  Mean % Inhibition of Granuloma: 76.86%

## CCCCC(=O)OCC#CCSC(=O)[C@@]1(OC(=O)CC)[C@H](C)CC2C3C[C@H](F)C4=CC(=O)C=C[C@]4(C)[C@@]3(F)[C@@H](O)C[C@@]21C (stereo partly drawn) [IB.35, S-[4-n-Butylcarbonyloxy-but-2-ynyl]6α,9α-difluoro-11β-hydroxy-16α-methyl-3-oxo-17α-propionyloxyandrosta-1,4-diene-17β-carbothioate]
[2]
  Mean % Inhibition (croton oil ear edema): 60.18^a %

## CCC(=O)O[C@]1(C(=O)SC)[C@H](C)C[C@H]2[C@@H]3C[C@H](F)C4=CC(=O)C=C[C@]4(C)[C@@]3(F)[C@@H](O)C[C@@]21C [IC.13, 6α,9α-Difluoro-11β-hydroxy-16α-methyl-3-oxo-17α-propionyloxyandrosta-1,4-diene-17β-carbonylsulfenic acid methyl ester.]
[2]
  Mean % Inhibition (croton oil ear edema): 41.79^a %

## CCOC(=O)C(=O)OC/C=C/CSC(=O)[C@@]1(OC(=O)CC)[C@H](C)CC2C3C[C@H](F)C4=CC(=O)C=C[C@]4(C)[C@@]3(F)[C@@H](O)C[C@@]21C (stereo partly drawn) [IB.44, S-[4-(2-Ethoxy-1,2-dioxoethyl)oxy-(E)-but-2-enyl]6α,9α-difluoro-11β-hydroxy-16α-methyl-3-oxo-17α-propionyloxyandrosta-1,4-diene-17β-carbothioate]
[2]
  Mean % Inhibition (croton oil ear edema): 75.19^a %

## CC1CC2C3CCC4=CC(=O)C=CC4(C)C3(F)C(O)CC2(C)C1(OC(=O)c1ccco1)C(=O)SOCc1ccc(F)cc1 (stereo not drawn) [IC.9, 9α-Fluoro-17α-[(2-furanylcarbonyl)oxy]-11β-hydroxy-16α-methyl-3-oxoandrosta-1,4-diene-17β-carbonylsulfenic acid (4-fluorophenyl)methyl ester.]
[1]; dose 3 mcg per pellet
  Mean % Inhibition of Granuloma: 34.3%
  Thymus wt. (% Decrease): 2.51%

## C[C@@H]1CC2C3C[C@H](F)C4=CC(=O)C=C[C@]4(C)[C@@]3(F)[C@@H](O)C[C@]2(C)[C@@]1(OC(=O)c1ccco1)C(=O)SCC#CCOC(=O)N(C)C (stereo partly drawn) [IB.103, S-[4-(N,N-Dimethylaminocarbonyloxy)-but-2-ynyl]6α,9α-difluoro-17α-[(2-furanyl-carbonyl)oxy]-11β-hydroxy-16α-methyl-3-oxoandrosta-1,4-diene-17β-carbothioate]
Glucocorticoid receptors; % inhibition at 10 nM
  inhibition at 0.01 µM: 78%

## CCC(=O)O[C@]1(C(=O)OCC(=O)c2ccccc2)[C@H](C)CC2C3C[C@H](F)C4=CC(=O)C=C[C@]4(C)[C@@]3(F)[C@@H](O)C[C@@]21C (stereo partly drawn) [IA.44, 2-Phenyl-2-oxoethyl 6α,9α-difluoro-11β-hydroxy-16α-methyl-3-oxo-17α-propionyloxyandrosta-1,4-diene-17β-carboxylate]
[1]; dose 1000 mcg per pellet
  Mean % Inhibition of Granuloma: 71.79%

## CC1CC2C3CC(F)C4=CC(=O)C=CC4(C)C3(F)C(O)CC2(C)C1(OC(=O)c1ccco1)C(=O)SOCc1ccc(Cl)cc1 (stereo not drawn) [IC.7, 6α,9α-Difluoro-17α-[(2-furanylcarbonyl)oxy]-11β-hydroxy-16α-methyl-3-oxoandrosta-1,4-diene-17β-carbonylsulfenic acid (4-chlorophenyl)methyl ester.]
Glucocorticoid receptors; % inhibition at 10 nM
  Glucocorticoid receptor binding % inhibition: 41^b %

## 6α,9α-Difluoro-11β-hydroxy-16α-methyl-3-oxo-17α-propionyloxyandrosta-1,4-diene-17β-carbonylsulfenic acid (4-trifluoromethylphenyl)methyl eseter. [IC.8]
[1]; dose 3 mcg per pellet
  Mean % Inhibition of Granuloma: 45.15%
  Thymus wt. (% Decrease): 3.38%

## COSC(=O)C1(OC(=O)c2ccco2)C(C)CC2C3CC(F)C4=CC(=O)C=CC4(C)C3(F)C(O)CC21C (stereo not drawn) [IC.14, 6α,9α-Difluoro-17α-[(2-furanylcarbonyl)oxy]-11β-hydroxy-16α-methyl-3-oxoandrosta-1,4-diene-17β-carbonylsulfenic acid methyl ester]
[2]
  Mean % Inhibition (croton oil ear edema): 61.46^a %

## CCC(=O)O[C@]1(C(=O)SCC#CCO)[C@H](C)CC2C3C[C@H](F)C4=CC(=O)C=C[C@]4(C)[C@@]3(F)[C@@H](O)C[C@@]21C (stereo partly drawn) [IB.2, S-(4-Hydroxy-but-2-ynyl) 6α,9α-difluoro-11β-hydroxy-16α-methyl-3-oxo-17α-propionyloxyandrosta-1,4-diene-17β-carbothioate]
Glucocorticoid receptors; % inhibition at 3 nM
  inhibition at 0.003 µM: 55%

## C[C@@H]1CC2C3C[C@H](F)C4=CC(=O)C=C[C@]4(C)[C@@]3(F)[C@@H](O)C[C@]2(C)[C@@]1(OC(=O)c1ccco1)C(=O)SC/C=C\CO (stereo partly drawn) [IB.15, S-(4-Hydroxy-(Z)-but-2-enyl) 6α,9α-difluoro-17α-[(2-furanylcarbonyl)oxy]-11β-hydroxy-16α-methyl-3-oxoandrosta-1,4-diene-17β-carbothioate]
Glucocorticoid receptors; % inhibition at 10 nM
  inhibition at 0.01 µM: 83%
[3]; dose 1000 mcg/kg intratracheally
  Mean % inhibition Lung edema: 70.3%
[3]; dose 3000 mcg/kg intratracheally
  Mean % inhibition Lung edema: 71.1%

## CC1CC2C3CC(F)C4=CC(=O)C=CC4(C)C3(F)C(O)CC2(C)C1(OC(=O)c1ccco1)C(=O)SOCc1ccc(C(F)(F)F)cc1 (stereo not drawn) [IC.6, 6α,9α-Difluoro-17α-[(2-furanylcarbonyl)oxy]-11β-hydroxy-16α-methyl-3-oxoandrosta-1,4-diene-17β-carbonylsulfenic acid (4-trifluoromethylphenyl)methyl ester.]
[1]; dose 1000 mcg per pellet
  Mean % Inhibition of Granuloma: 84.96%
  Thymus wt. (% Decrease): 10.96%

## C[C@@H]1C[C@H]2[C@@H]3CCC4=CC(=O)C=C[C@]4(C)[C@@]3(Cl)[C@@H](O)C[C@]2(C)[C@@]1(OC(=O)c1ccco1)C(=O)CCl [Mometasone furoate, (11β,16α)-9,21-Dichloro-17-[(2-furanylcarbonyl)oxy]-11-hydroxy-16-methylpregna-1,4-diene-3,20-dione]
[4]
  % Inhibition of thymus: 43.51%
  Glycogen content: 1117.32 mg/100 g liver
